Each compound was assayed on C8166-45 cell line (assay: MTT Assay (cytotoxicity)). Conditions: C8166-45 cells, five days.
Assay type: cell-based, human

| SMILES | MTT Assay CC30 |
| --- | --- |
| CCN1c2ncc([C@@H]3O[C@@H]3c3ccccc3)cc2C(=O)N(C)c2ccc(Cl)nc21 (relative stereo) [Example 46, 2Chloro-5,11-dihydro-11-ethyl-5-methyl-8-(2-phenyloxiranyl)-6H-dipyrido[3,2-b:2',3'-e][1,4]diazepin-6-one] | > 30 µM |
| CCN1c2ncc(CCc3cc[n+]([O-])cc3)cc2C(=O)N(C)c2ccc(Cl)nc21 [Example 8, 2-Chloro-5,11-dihydro-11-ethyl-8-[2-(4-(N-oxopyridyl))ethyl]-5-methyl-6H-dipyrido[3,2-b:2',3'-e][1,4]diazepin-6-one] | > 256 µM |
| CCN1c2ncc(CC(O)c3ccncc3)cc2C(=O)N(C)c2ccc(Cl)nc21 (centres unmarked) [Example 9, 2-Chloro-5,11-dihydro-11-ethyl-8-[2-hydroxy-2-(pyrid-4yl)ethyl-]5methyl-6H-dipyridol[3,2-b:2',3'-e][1,4]diazepin-6-one] | 150 µM |
| CCN1c2ncc(CC(F)c3ccncc3)cc2C(=O)N(C)c2ccc(Cl)nc21 (centres unmarked) [Example 11, 2-Chloro-5,11-dihydro-11-ethyl-8-[2-fluoro-2-(4-pyridyl)ethyl]-5-methyl-6H-dipyrido-[3,2-b:2',3'-e][1,4]diazepin-6-one] | 150 µM |
| CCN1c2ncc(CC(=O)c3ccncc3)cc2C(=O)N(C)c2ccc(Cl)nc21 [Example 12, 2-Chloro-5,11-dihydro-11-ethyl-8-[2-oxo-2-(4-pyridyl)ethyl]-5-methyl-6H-dipyrido[3,2-b:2',3'-e][1,4]diazepin-6-one] | 250 µM |
| CCN1c2ncc(CC(O)c3cc[n+]([O-])cc3)cc2C(=O)N(C)c2ccc(Cl)nc21 (centres unmarked) [Example 13, 2-Chloro-5,11-dihydro-11-ethyl-8-[2-hydroxy-2-(N-oxo-pyrid-4-yl)ethyl]-5-methyl-6H-dipyrido[3,2-b:2',3'-e][1,4]diazepin-6-one] | > 128 µM |
| CCN1c2ncc(CCc3cccc(N)c3)cc2C(=O)N(C)c2ccc(Cl)nc21 [Example 22, 8-[2-(3-Aminophenyl)ethyl]-2-chloro-5,11-dihydro-11-ethyl-5-methyl-6H-dipyrido[3,2-b:2',3'-e][1,4]diazepin-6-one] | 60 µM |
| CCN1c2ncc(CCc3cccc(NC(N)=O)c3)cc2C(=O)N(C)c2ccc(Cl)nc21 [Example 26, 2Chloro-5,11-dihydro-11-ethyl-5-methyl-8-2-[(3-ureidophenyl)ethyl]-6H-dipyrido[3,2-b:2',3'-e][1,4]diazepin-6-one] | 35 µM |
| CCN1c2ncc(CCc3cccc4[nH]ccc34)cc2C(=O)N(C)c2cccnc21 [Example 29, 5,11-Dihydro-11-ethyl-5methyl-8-[2-(4-indolyl)ethyl]-6H-dipyrido[3,2-b:2',3'-e][1,4]diazepin-6-one] | > 60 µM |
| CN1C(=O)c2cc(CCc3ccncc3)cnc2N(C2CC2)c2nc(Cl)ccc21 [Example 37, 2Chloro-11-cyclopropyl-5,11-dihydro-5-methyl-8-[2-(pyrid-4-yl)ethyl]-6H-dipyrido[3,2-b:2',3'-e][1,4]diazepin-6-one] | > 60 µM |
| CCN1c2ncc(CCc3ccncc3)cc2C(=O)N(C)c2ccc(F)nc21 [Example 38, 5,11-Dihydro-11-ethyl-2-fluoro-5-methyl-8-[2-(pyrid-4-yl)ethyl]-6H-dipyrido[3,2-b:2',3'-e][1,4]diazepin-6-one] | 150 to 175 µM |
| CCN1c2ncc(CC(O)c3ccncc3)cc2C(=O)N(C)c2ccc(F)nc21 (centres unmarked) [Example 40, 5,11-Dihydro-11-ethyl-2-fluoro-8-[2-hydroxy-2-(pyrid-4-yl)ethyl]-5-methyl-6H-dipyrido[3,2-b:2',3'-e][1,4]diazepin-6-one] | > 20 µM |
| CCN1c2ncc(CCc3ccc4ccccc4c3)cc2C(=O)N(C)c2ccc(F)nc21 [Example 41, 5,11-Dihydro-11-ethyl-2-fluoro-5-methyl-8-[2-(2-naphthyl)ethyl]-6H-dipyrido[3,2-b:2',3'-e][1,4]diazepin-6-one] | 20 µM |
| CCN1c2ncc(CCc3ccccc3C)cc2C(=O)N(C)c2cccnc21 [Example 62, 5,11-Dihydro-11-ethyl-5-methyl-8-[2-(2-tolyl)ethyl]-6H-dipyrido[3,2-b:2',3'-e][1,4]diazepin-6-one] | > 130 µM |
| CCN1c2ncc(CCc3ccccc3N)cc2C(=O)N(C)c2cccnc21 [Example 64, 8-[2-(2-Aminophenyl)ethyl]-5,11-dihydro-11-ethyl-5-methyl-6H-dipyrido[3.2-b:2',3'-e][1,4]diazepin-6-one] | > 200 µM |
| CCN1c2ncc(CCc3ccnc(C)c3)cc2C(=O)N(C)c2cccnc21 [Example 65, 5,11-Dihydro-11-ethyl-5-methyl-8-[2-(2-methylpyrid-4-yl)ethyl]-6H-dipyrido[3,2-b:2',3'-e][1,4]diazepin-6-one] | 230 µM |
| CCN1c2ncc(CCc3ccnc(C)c3)cc2C(=O)N(C)c2ccc(Cl)nc21 [Example 66, 2-Chloro-5,11-dihydro-11-ethyl-5-methyl-8-[2-(2-methylpyrid-4-yl)ethyl]-6H-dipyrido[3,2-b:2',3'-e][1.4]diazepin-6-one] | 100 µM |
| CCN1c2ncc(CCc3ccnc(CO)c3)cc2C(=O)N(C)c2ccc(Cl)nc21 [Example 67, 2-Chloro-5,11-dihydro-11-ethyl-5-methyl-8-[2-(2-hydroxymethyl-4-pyridyl)ethyl]-6H -dipyrido[3,2-b:2',3'-e][1,4]diazepin-6-one] | 128 µM |

| SMILES | MTT Assay CC30 |
| --- | --- |
| CCN1c2ncc(CCc3ccnc(C(N)=O)c3)cc2C(=O)N(C)c2ccc(Cl)nc21 [Example 69, 2-Chloro-5,11-dihydro-11-ethyl-5-methyl-8-[2-(2-carboxamidopyrid-4-yl)ethyl]-6H-dipyrido[3,2-b:2',3'-e][1,4]diazepin-6-one] | > 128 µM |
| CCN1c2ncc(CCc3ccccc3)cc2C(=O)Nc2c1nc(Cl)c(Br)c2C [Example 75, 3-Bromo-2-chloro-5,11-dihydro-11-ethyl-4-methyl-8-(2-phenylethyl)-6H-dipyrido[3,2-b:2',3'-e][1,4]diazepin-6-one] | > 130 µM |
| CCN1c2ncc(CCc3ccccc3)cc2C(=O)Nc2c(C)ccnc21 [Example 76, 5,11-Dihydro-11-ethyl-4-methyl-8-(2-phenylethyl)-6H-dipyrido[3,2-b:2',3'-e][1,4]diazepin-6-one] | > 130 µM |
| CCN1c2ncc(C=O)cc2C(=O)N(C)c2ccc(Cl)nc21 [Example 80, 2-chloro-5,11-dihydro-11-ethyl-8-formyl-5-methyl-6H-dipyrido[3,2-b:2',3'-e][1,4]diazepin-6-one] | 65 µM |
| CCN1c2ncc(CCl)cc2C(=O)N(C)c2ccc(Cl)nc21 [Example 82, 2-chloro-8-chloromethyl-5,11-dihydro-11-ethyl-5-methyl-6H-dipyrido[3,2-b:2',3'-e][1,4]diazepin-6-one] | > 256 µM |
| CCN1c2ncc(CCO)cc2C(=O)N(C)c2ccc(Cl)nc21 [Example 85, 2-chloro-5,11-dihydro-11-ethyl-8-(β-hydroxy)ethyl-5-methyl-6H-dipyrido[3,2-b:2',3'-e][1,4]diazepin-6-one] | > 256 µM |
| CCN1c2ncc(C(C)O)cc2C(=O)N(C)c2ccc(Cl)nc21 (stereo not drawn) [Example 86, 2-chloro-5,11-dihydro-11-ethyl-8-(α-hydroxy)ethyl-5-methyl-6H-dipyrido[3,2-b:2',3'-e][1,4]diazepin-6-one] | 256 µM |
| CCN1c2ncc(CNc3ccccc3)cc2C(=O)N(C)c2ccc(Cl)nc21 [Example 87, 2-chloro-5,11-dihydro-11-ethyl-5-methyl-8-(phenylamino)methyl-6H-dipyrido[3,2-b:2',3'-e][1,4]diazepin-6-one] | > 60 µM |
| CCN1c2ncc(CNc3cccc(N)c3)cc2C(=O)N(C)c2ccc(Cl)nc21 [Example 88, 8-(3-aminophenylamino)methyl-2-chloro-5,11-dihydro-11-ethyl-5-methyl-6H-dipyrido[3,2-b:2',3'-e][1,4]diazepin-6-one] | 60 µM |
| CCN1c2ncc(O)cc2C(=O)N(C)c2ccc(Cl)nc21 [Example 89, 2-chloro-5,11-dihydro-11-ethyl-8-hydroxy-5-methyl-6H-dipyrido[3,2-b:2',3'-e[]1,4]diazepin-6-one] | 130 µM |
| CCN1c2ncc(OCc3ccccc3)cc2C(=O)N(C)c2ccc(Cl)nc21 [Example 90, 2-chloro-5,11-dihydro-11-ethyl-5-methyl-8-phenylmethoxy-6H-dipyrido[3,2-b:2',3'-e][1,4]diazepin-6-one] | > 60 µM |
| CCN1c2ncc(COc3cc[n+]([O-])c(C)c3)cc2C(=O)N(C)c2ccc(Cl)nc21 [Example 94, 2-chloro-5,11-dihydro-11-ethyl-5-methyl-8-(N-oxo-2-methylpyrid-4-yloxy)methyl-6H-dipyrido[3,2-b:2',3'-e][1,4]diazepin-6-one] | 200 µM |
| CCN1c2ncc(COc3cc[n+]([O-])c(C(F)(F)F)c3)cc2C(=O)N(C)c2ccc(Cl)nc21 [Example 95, 2-chloro-5,11-dihydro-11-ethyl-5-methyl-8-(N-oxo-2-trifluoromethylpyrid-4-yloxy)methyl-6H-dipyrido[3,2-b:2',3'-e][1,4]diazepin-6-one] | 100 µM |
| CCN1c2ncc(COc3cc[n+]([O-])cc3)cc2C(=O)N(C)c2cccnc21 [Example 97, 5,11-dihydro-11-ethyl-5-methyl-8-((1-oxo-pyridin-4-yl)oxy)methyl-6H-dipyrido[3,2-b:2',3'-e][1,4]diazepin-6-one] | > 130 µM |
| CCN1c2ncc(COc3cccc([N+](=O)[O-])c3)cc2C(=O)N(C)c2ccc(Cl)nc21 [Example 98] | > 60 µM |
| CCN1c2ncc(COc3cccc(F)c3)cc2C(=O)N(C)c2ccc(Cl)nc21 [Example 101] | > 60 µM |
| CCN1c2ncc(COc3ccc(F)cc3)cc2C(=O)N(C)c2ccc(Cl)nc21 [Example 103, 2-chloro-5,11-dihydro-11-ethyl-8-(4-fluorophenyloxy)methyl-5-methyl-6H-dipyrido[3,2-b:2',3'-e][1,4]diazepin-6-one] | > 60 µM |
